# Molecular target: T1, human mu opioid receptors (hMOR) (Homo sapiens, UniProt P35372)
# T1 construct: expressed in transfected cells; host or cells: CHO cells (CHO-hMOR), membranes or intact cells
# Assay: [35S]GTPγS binding, CHO-hMOR membranes (control devoid of CBRs)
# Type: biochemical
# Details: 10 μM
# Description: Non-specific binding was defined by radioactivity remaining in the presence of 10 μM of non-radioactive GTPγS. All reactions were incubated for 30 min at 30°C, terminated by filtration through Whatman GF/B glass fiber filters (Brandel, Inc.) and followed by four 4 ml washes of ice cold filtration buffer (50 mM HEPES, pH 7.4) containing 0.1% bovine serum albumin. Filter punches of individual samples were placed in scintillation vials containing 4 mls of ScintiverseTM BD cocktail scintillation fluid (Fisher Scientific, Pittsburg, PA, USA). Final counts were determined using liquid scintillation spectrophotometry (Tri Carb 2100 TR Liquid Scintillation Analyzer, Packard Instrument Company, Meriden, CT, USA) after overnight incubation.
# T1 sequence (P35372 whole entry): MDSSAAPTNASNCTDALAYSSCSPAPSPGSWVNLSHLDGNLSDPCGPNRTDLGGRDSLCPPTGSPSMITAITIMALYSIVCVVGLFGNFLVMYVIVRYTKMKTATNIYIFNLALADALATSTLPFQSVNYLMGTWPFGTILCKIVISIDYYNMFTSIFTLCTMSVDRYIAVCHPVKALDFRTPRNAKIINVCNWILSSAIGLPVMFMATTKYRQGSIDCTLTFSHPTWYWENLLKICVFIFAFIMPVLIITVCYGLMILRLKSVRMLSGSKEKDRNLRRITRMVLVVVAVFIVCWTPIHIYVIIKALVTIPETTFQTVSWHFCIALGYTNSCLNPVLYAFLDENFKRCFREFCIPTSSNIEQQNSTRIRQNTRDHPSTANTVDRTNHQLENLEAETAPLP
structure (smiles),measurement,value
"OCCOc1ccc(/C(=C(/CCCl)c2ccccc2)c2ccccc2)cc1 [OSP, ospemifene]","decrease in basal G-protein activity, CHO-hMOR",11%
